From the Kinase Knowledgebase extract (Sharma et al. 2016)

Biological target: EGFR (UniProt P00533)
Assay: Inhibition of EGFR Kinase Activity

Chain of EGFR (P00533 whole entry, looked up): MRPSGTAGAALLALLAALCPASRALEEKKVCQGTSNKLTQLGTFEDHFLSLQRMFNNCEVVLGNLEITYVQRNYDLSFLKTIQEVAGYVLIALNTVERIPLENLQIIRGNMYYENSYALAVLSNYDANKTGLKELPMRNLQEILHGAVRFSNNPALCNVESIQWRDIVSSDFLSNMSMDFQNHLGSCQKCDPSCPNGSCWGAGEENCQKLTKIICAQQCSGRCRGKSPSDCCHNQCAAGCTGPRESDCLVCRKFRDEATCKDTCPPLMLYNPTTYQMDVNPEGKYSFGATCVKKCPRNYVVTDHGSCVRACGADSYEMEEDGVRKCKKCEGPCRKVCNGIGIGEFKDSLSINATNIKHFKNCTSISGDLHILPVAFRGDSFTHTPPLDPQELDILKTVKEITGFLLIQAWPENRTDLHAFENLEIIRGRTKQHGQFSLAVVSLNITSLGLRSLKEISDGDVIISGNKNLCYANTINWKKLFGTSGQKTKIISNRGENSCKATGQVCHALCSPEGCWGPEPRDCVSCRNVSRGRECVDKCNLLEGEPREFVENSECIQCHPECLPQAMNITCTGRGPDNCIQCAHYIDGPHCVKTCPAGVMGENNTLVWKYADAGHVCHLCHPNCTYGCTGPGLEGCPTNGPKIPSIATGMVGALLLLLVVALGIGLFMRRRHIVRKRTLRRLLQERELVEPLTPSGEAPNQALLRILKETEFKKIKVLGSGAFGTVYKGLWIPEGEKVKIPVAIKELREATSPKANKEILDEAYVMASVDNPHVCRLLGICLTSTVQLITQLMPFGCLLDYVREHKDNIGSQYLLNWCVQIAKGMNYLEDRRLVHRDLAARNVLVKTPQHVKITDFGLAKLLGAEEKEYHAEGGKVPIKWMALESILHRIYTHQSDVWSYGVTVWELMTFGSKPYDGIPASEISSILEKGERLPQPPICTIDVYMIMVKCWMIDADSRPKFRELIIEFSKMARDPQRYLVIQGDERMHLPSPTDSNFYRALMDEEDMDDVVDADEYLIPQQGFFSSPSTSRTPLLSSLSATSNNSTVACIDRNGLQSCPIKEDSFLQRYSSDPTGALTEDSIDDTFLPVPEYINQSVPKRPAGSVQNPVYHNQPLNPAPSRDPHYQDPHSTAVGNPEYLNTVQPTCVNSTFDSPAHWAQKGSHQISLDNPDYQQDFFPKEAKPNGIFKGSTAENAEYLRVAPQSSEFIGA

In the case of `C=CC(=O)N(CCCN1CCOCC1)c1cccc(Nc2ncnc(NC3CC3c3ccc(Cl)cc3)n2)c1` (centres undefined), the IC50 is reported as < 50 µM.

`C=CCN(c1cccc(CC(=O)OC)c1)c1ncnc(Nc2cccc(NC(=O)C=C)c2)n1` was tested, and the IC50 was < 50 µM.

With `C=CC(=O)Nc1cccc(Nc2ncnc(NN3CCCc4ccc(Cl)cc43)n2)c1` the IC50 was < 50 µM.

`C=CC(=O)Nc1ccc(Nc2ncnc(Nn3c(=O)n(C(=O)C(C)(C)C)c4ccccc43)n2)cc1` was tested, and the IC50 was < 50 µM.

For `CC#CC(=O)Nc1cccc(Nc2ncnc(Nc3cccc(S(=O)(=O)c4ccc([N+](=O)[O-])cc4)c3)n2)c1`, the IC50 was < 50 µM.

For `CC#CC(=O)Nc1cc(Nc2ncnc(N(C)c3ccc(OCc4ccccc4)c(Cl)c3)n2)ccc1OCCCN1CCOCC1`, the IC50 was < 50 µM.

In the case of `C=CC(=O)Nc1cccc(Nc2ncnc(Nc3cccc(Cl)c3)n2)c1`, the IC50 is reported as < 50 µM.

`C=CCN(c1ncnc(Nc2cccc(NC(=O)C=C)c2)n1)c1cccc2ccccc12` was tested, and the IC50 was < 50 µM.

With `C=CCN(c1ccc(OCCO)cc1)c1ncnc(Nc2cccc(NC(=O)C#CC)c2)n1` the IC50 was < 50 µM.

With `C=CCN(c1ncnc(Nc2cccc(NC(=O)C=C)c2)n1)n1c(=O)[nH]c2ccccc21` the IC50 was < 50 µM.

In the case of `C=CC(=O)Nc1ccc(Nc2ncnc(N(CC)c3cccc(C)c3)n2)cc1`, the IC50 is reported as < 50 µM.

For `CC#CC(=O)Nc1cccc(Nc2ncnc(n2)N(C)c3ccc4NN(=Cc4c3)Cc5ccccn5)c1`, the IC50 was < 50 µM.

`CC#CC(=O)Nc1cccc(Nc2ncnc(N(C)c3ccc(C(=O)OC)cc3)n2)c1` was tested, and the IC50 was < 50 µM.

With `C=CC(=O)Nc1cccc(Nc2ncnc(N(CC)c3ccc(C(=O)OC)cc3)n2)c1` the IC50 was < 50 µM.

`C=CC(=O)Nc1cccc(Nc2ncnc(Nc3ccc4c(ccn4Cc4ccccc4)c3)n2)c1` was tested, and the IC50 was < 50 µM.

In the case of `CC#CC(=O)Nc1cccc(Nc2ncnc(N(CC)c3cc(Cl)ccc3C)n2)c1`, the IC50 is reported as < 50 µM.

`CC#CC(=O)Nc1cccc(Nc2ncnc(N(C)c3cc(Cl)cc4ccccc34)n2)c1` was tested, and the IC50 was < 50 µM.

In the case of `C=CC(=O)Nc1ccc(Nc2ncnc(N(CC)C3CC3c3ccccc3)n2)cc1` (centres undefined), the IC50 is reported as < 50 µM.

For `C=CC(=O)N(CCCN1CCOCC1)c1cccc(Nc2ncnc(N(C)c3cccc(Cl)c3)n2)c1`, the IC50 was < 50 µM.

In the case of `CC#CC(=O)Nc1cccc(Nc2ncnc(N(C)c3cccc4ccccc34)n2)c1`, the IC50 is reported as < 50 µM.

In the case of `CC#CC(=O)Nc1cccc(Nc2ncnc(Nc3ccc(OC)c(OCCOC)c3)n2)c1`, the IC50 is reported as < 50 µM.

`C=CC(=O)Nc1cccc(Nc2ncnc(N(CC)c3ccc(OCc4ccccc4)cc3)n2)c1` was tested, and the IC50 was < 50 µM.

For `C=CC(=O)Nc1ccc(Nc2ncnc(N(CC)c3ccc(OC)c(OCCOC)c3)n2)cc1`, the IC50 was < 50 µM.

For `CC#CC(=O)Nc1cccc(Nc2ncnc(N(CC)c3ccc(OCC)c(OCC)c3)n2)c1`, the IC50 was < 50 µM.

In the case of `CC#CC(=O)Nc1cccc(Nc2ncnc(N(CC)c3ccc(OCc4ccccc4)cc3)n2)c1`, the IC50 is reported as < 50 µM.

`C=CCN(c1ccc2c(cnn2Cc2ccccc2)c1)c1ncnc(Nc2ccc(NC(=O)C=C)cc2)n1` was tested, and the IC50 was < 50 µM.

With `C=CC(=O)Nc1cccc(Nc2ncnc(N(CC)c3cc(Cl)ccc3C)n2)c1` the IC50 was < 50 µM.

For `C/C=C/C(=O)Nc1cccc(Nc2ncnc(Nc3ccc4c(ccn4Cc4ccccc4)c3)n2)c1`, the IC50 was < 50 µM.

With `CC#CC(=O)Nc1cccc(Nc2ncnc(N(C)n3c(=O)[nH]c4ccccc43)n2)c1` the IC50 was < 50 µM.

In the case of `C=CCN(c1cccc(Cl)c1)c1ncnc(Nc2cccc(NC(=O)C#CC)c2)n1`, the IC50 is reported as < 50 µM.

With `O=C(/C=C/c1cccc(Nc2ncnc(Nc3ccc4c(cnn4Cc4ccccc4)c3)n2)c1)NCCCN1CCOCC1` the IC50 was < 50 µM.

For `CC#CC(=O)Nc1cccc(Nc2ncnc(N(CC)c3cc(Cl)cc4ccccc34)n2)c1`, the IC50 was < 50 µM.

In the case of `C=CC(=O)N(CCCN1CCOCC1)c1cccc(Nc2ncnc(Nc3cc(Cl)cc4ccccc34)n2)c1`, the IC50 is reported as < 50 µM.

With `C=CC(=O)Nc1ccc(Nc2ncnc(N(C)c3ccc4c(cnn4Cc4ccccc4)c3)n2)cc1` the IC50 was < 50 µM.

For `C=CC(=O)Nc1ccc(Nc2ncnc(N(C)n3c(=O)[nH]c4ccccc43)n2)cc1`, the IC50 was < 50 µM.

In the case of `C=CC(=O)Nc1cccc(Nc2ncnc(Nc3ccc(OC)c(OCCOC)c3)n2)c1`, the IC50 is reported as < 50 µM.

For `CC#CC(=O)Nc1cccc(Nc2ncnc(N(CC)c3cccc4ccccc34)n2)c1`, the IC50 was < 50 µM.

`C=CC(=O)Nc1cccc(Nc2ncnc(Nc3ccc(OCC)c(OCC)c3)n2)c1` was tested, and the IC50 was < 50 µM.

In the case of `C=CC(=O)Nc1ccc(Nc2ncnc(N(CC)c3cc(Cl)cc4ccccc34)n2)cc1`, the IC50 is reported as < 50 µM.

With `C=CC(=O)N(CCCN1CCOCC1)c1cccc(Nc2ncnc(Nc3ccc(F)c(Cl)c3)n2)c1` the IC50 was < 50 µM.

`CC#CC(=O)Nc1cc(Nc2ncnc(N(C)c3cccc(Cl)c3)n2)ccc1OCCCC1CCN(C)CC1` was tested, and the IC50 was < 50 µM.

In the case of `C=CC(=O)Nc1ccc(Nc2ncnc(N(C)c3ccc(OCc4ccccc4)cc3)n2)cc1`, the IC50 is reported as < 50 µM.

In the case of `C=CC(=O)Nc1ccc(Nc2ncnc(N(C)c3cc(OC)c(OC)c(OCCN4CCOCC4)c3)n2)cc1`, the IC50 is reported as < 50 µM.

`C=CC(=O)Nc1ccc(Nc2ncnc(Nc3ccc(OC)c(OC)c3)n2)cc1` was tested, and the IC50 was < 50 µM.

For `CC#CC(=O)Nc1cc(Nc2ncnc(N(C)c3ccc4c(ccn4Cc4ccccc4)c3)n2)ccc1OCCCC1CCN(C)CC1`, the IC50 was < 50 µM.

With `C=CCN(c1ccc(C(=O)OC)cc1)c1ncnc(Nc2cccc(NC(=O)C=C)c2)n1` the IC50 was < 50 µM.

With `C=CC(=O)Nc1ccc(Nc2ncnc(Nc3cccc(OCCOC)c3)n2)cc1` the IC50 was < 50 µM.

In the case of `C=C/C=C/C(=O)Nc1cccc(Nc2ncnc(NC3CC3c3ccc(Cl)cc3)n2)c1` (centres undefined), the IC50 is reported as < 50 µM.

In the case of `CC#CC(=O)Nc1cccc(Nc2ncnc(Nc3ccc(OCCOC)c(OC)c3)n2)c1`, the IC50 is reported as < 50 µM.

For `CC#CC(=O)Nc1cccc(Nc2ncnc(Nc3ccc(OCc4ccccc4)c(Cl)c3)n2)c1`, the IC50 was < 50 µM.

For `CC#CC(=O)Nc1cccc(Nc2ncnc(Nc3ccc(OCc4ccccc4)cc3)n2)c1`, the IC50 was < 50 µM.

With `C#CCC(=O)Nc1cccc(Nc2ncnc(NN3CCCc4ccc(Cl)cc43)n2)c1` the IC50 was < 50 µM.

`C=CC(=O)Nc1ccc(Nc2ncnc(N(C)c3ccc(OC)c(OCCOC)c3)n2)cc1` was tested, and the IC50 was < 50 µM.

In the case of `C=CCN(c1cccc(S(=O)(=O)c2ccc([N+](=O)[O-])cc2)c1)c1ncnc(Nc2cccc(NC(=O)C=C)c2)n1`, the IC50 is reported as < 50 µM.

With `C=CCN(c1cccc(S(=O)(=O)c2ccc([N+](=O)[O-])cc2)c1)c1ncnc(Nc2cccc(NC(=O)C#CC)c2)n1` the IC50 was < 50 µM.

With `C#Cc1cccc(Nc2ncnc(Nc3cccc(NC(=O)C=C)c3)n2)c1` the IC50 was < 50 µM.

With `CC#CC(=O)Nc1cccc(Nc2ncnc(N(CC)c3ccc(OCCO)cc3)n2)c1` the IC50 was < 50 µM.

For `C=CC(=O)Nc1ccc(Nc2ncnc(Nc3ccc(OCc4ccccc4)c(Cl)c3)n2)cc1`, the IC50 was < 50 µM.

With `C=CCN(c1ccc2c(cnn2Cc2ccccc2)c1)c1ncnc(Nc2cccc(NC(=O)C=C)c2)n1` the IC50 was < 50 µM.

For `C=CC(=O)Nc1cc(Nc2ncnc(N(C)c3ccc4c(ccn4Cc4ccccc4)c3)n2)ccc1OCCCN1CCOCC1`, the IC50 was < 50 µM.

With `C=CC(=O)Nc1cccc(Nc2ncnc(Nc3ccc(OCc4ccc(Cl)c(Cl)c4)c(C(F)(F)F)c3)n2)c1` the IC50 was < 50 µM.

`C=CC(=O)Nc1cc(Nc2ncnc(N(C)c3ccc(OCc4ccccc4)c(Cl)c3)n2)ccc1OCCCC1CCN(C)CC1` was tested, and the IC50 was < 50 µM.

With `C=CC(=O)Nc1ccc(Nc2ncnc(N(CC)n3c(=O)n(C(=O)C(C)(C)C)c4ccccc43)n2)cc1` the IC50 was < 50 µM.

`C=CC(=O)Nc1cccc(Nc2ncnc(N(CC)c3ccc(OCC)c(OCC)c3)n2)c1` was tested, and the IC50 was < 50 µM.

For `C=CC(=O)Nc1cccc(Nc2ncnc(Nn3c(=O)[nH]c4ccccc43)n2)c1`, the IC50 was < 50 µM.

In the case of `CC#CC(=O)Nc1cccc(Nc2ncnc(N(C)c3ccc(OCCOC)c(OC)c3)n2)c1`, the IC50 is reported as < 50 µM.

With `CC#CC(=O)Nc1cccc(Nc2ncnc(N(C)c3cc(OC)c(OC)c(OCCN4CCOCC4)c3)n2)c1` the IC50 was < 50 µM.

In the case of `C=CC(=O)Nc1cccc(Nc2ncnc(N(CC)C3CC3c3ccc(Cl)cc3)n2)c1` (centres undefined), the IC50 is reported as < 50 µM.

In the case of `C=CCN(c1ncnc(Nc2cccc(NC(=O)C=C)c2)n1)n1c(=O)n(C(=O)C(C)(C)C)c2ccccc21`, the IC50 is reported as < 50 µM.

`C=CC(=O)Nc1ccc(Nc2ncnc(NN3CCCc4cc(C)ccc43)n2)cc1` was tested, and the IC50 was < 50 µM.

For `C=CC(=O)Nc1cccc(Nc2ncnc(N(CC)c3cccc(S(=O)(=O)c4ccc([N+](=O)[O-])cc4)c3)n2)c1`, the IC50 was < 50 µM.

In the case of `C=CC(=O)Nc1cccc(Nc2ncnc(Nc3ccc(C(=O)OC)cc3)n2)c1`, the IC50 is reported as < 50 µM.

For `C=CC(=O)Nc1ccc(Nc2ncnc(N(CC)c3ccc(OCCO)cc3)n2)cc1`, the IC50 was < 50 µM.

With `C=CC(=O)Nc1cc(Nc2ncnc(NN3CCCc4ccc(Cl)cc43)n2)ccc1OCCCN1CCOCC1` the IC50 was < 50 µM.

For `C=CCN(c1ncnc(Nc2cccc(NC(=O)C=C)c2)n1)C1CC1c1ccccc1` (centres undefined), the IC50 was < 50 µM.

In the case of `CC#CC(=O)Nc1cccc(Nc2ncnc(Nc3cccc4ccccc34)n2)c1`, the IC50 is reported as < 50 µM.

With `C=CC(=O)Nc1cccc(Nc2ncnc(Nc3ccc(OCc4ccccc4Br)c(Cl)c3)n2)c1` the IC50 was < 50 µM.

With `CC#CC(=O)Nc1cccc(Nc2ncnc(N(CC)c3ccc4c(cnn4Cc4ccccc4)c3)n2)c1` the IC50 was < 50 µM.

For `C=CC(=O)Nc1cccc(Nc2ncnc(N(C)c3cccc(CC(=O)OC)c3)n2)c1`, the IC50 was < 50 µM.

With `C=CC(=O)Nc1cc(Nc2ncnc(NN3CCCc4ccc(Cl)cc43)n2)ccc1OCCCC1CCN(C)CC1` the IC50 was < 50 µM.

For `C=CCN(c1ccc(OCC)c(OCC)c1)c1ncnc(Nc2cccc(NC(=O)C=C)c2)n1`, the IC50 was < 50 µM.

With `C=CCN(c1ccc(OC)c(OCCOC)c1)c1ncnc(Nc2cccc(NC(=O)C#CC)c2)n1` the IC50 was < 50 µM.

For `CC#CC(=O)Nc1cccc(Nc2ncnc(N(C)c3ccc4c(cnn4Cc4ccccc4)c3)n2)c1`, the IC50 was < 50 µM.

In the case of `CC#CC(=O)Nc1cc(Nc2ncnc(N(C)c3ccc4c(cnn4Cc4ccccc4)c3)n2)ccc1OCCCN1CCOCC1`, the IC50 is reported as < 50 µM.

In the case of `C=CC(=O)Nc1cccc(Nc2ncnc(NN3CCCc4cc(OC)ccc43)n2)c1`, the IC50 is reported as < 50 µM.

In the case of `C=CCN(c1cc(OC)c(OC)c(OCCN2CCOCC2)c1)c1ncnc(Nc2cccc(NC(=O)C=C)c2)n1`, the IC50 is reported as < 50 µM.

In the case of `C=CCN(c1ccc(OCCC)c(OCCC)c1)c1ncnc(Nc2cccc(NC(=O)C#CC)c2)n1`, the IC50 is reported as < 50 µM.

`C=CCN(c1cccc(CC(=O)OC)c1)c1ncnc(Nc2ccc(NC(=O)C=C)cc2)n1` was tested, and the IC50 was < 50 µM.

For `C=CC(=O)Nc1ccc(Nc2ncnc(Nc3cccc(C)c3)n2)cc1`, the IC50 was < 50 µM.

In the case of `C=CC(=O)Nc1cccc(Nc2ncnc(Nc3cc(OC)c(OC)c(OC)c3)n2)c1`, the IC50 is reported as < 50 µM.

With `C=CCN(c1ncnc(Nc2ccc(NC(=O)C=C)cc2)n1)n1c(=O)n(C(=O)C(C)(C)C)c2ccccc21` the IC50 was < 50 µM.

In the case of `C=CC(=O)Nc1cccc(Nc2ncnc(N(CC)n3c(=O)n(C(=O)C(C)(C)C)c4ccccc43)n2)c1`, the IC50 is reported as < 50 µM.

For `C=CC(=O)Nc1ccc(Nc2ncnc(Nc3cccc(Cl)c3)n2)cc1`, the IC50 was < 50 µM.

In the case of `C=CC(=O)Nc1ccc(Nc2ncnc(N(CC)c3cccc(CC(=O)OC)c3)n2)cc1`, the IC50 is reported as < 50 µM.
